Results reported in patent publication US9420817B2, “Agent for amelioration of dysphagia, and pharmaceutical or food composition comprising the same” (AJINOMOTO CO., INC., priority 2006, dated 2016).

System: cough receptor
Assay: Cough receptor sensitivity test (nebulizer inhalation, C5)
Assay type: in vivo, human
Conditions: seventeen healthy adults, inhaled by nebulizer for 15 seconds at intervals of one minute, 0.49 to 1,000 μM
Procedure: In the following Examples, 1 mL of an emulsifier (Tween 80) and 1 mL of 99.7% ethanol were added to 70 μL of the resultant extracted oil immediately before use, and the mixture was diluted with physiological saline (Otsuka) in Example 1 or with distilled water in Example 2, to thereby prepare solutions containing different concentrations of capsinoid. In the same way as above, 1 mL of an emulsifier (Tween 80) and 1 mL of 99.7% ethanol were added to 30.5 mg of capsaicin (manufactured by Sigma-Aldrich) immediately before use, and the mixture was diluted with physiological saline (Otsuka) in Example 1 or with distilled water in Example 2, to thereby prepare solutions containing different concentrations of capsaicin.
Seventeen healthy adults (mean age 36±2.6) inhaled the capsaicin solution prepared in Production Example (0.49 to 1,000 μM) by a nebulizer for 15 seconds at intervals of one minute, and the concentrations for causing five or more coughs by one aspiration (C5) were determined.
At a later date, the same test was performed for the same test subjects using the capsinoid solutions (0.49 to 1,000 μM) to determine C5, followed by comparison between C5 of the capsaicin solution and C5 of the capsinoid solution.

COc1cc(CNC(=O)CCCC/C=C/C(C)C)ccc1O [capsaicin solution, capsaicin]
C5 (concentration for causing five or more coughs by one aspiration): 2.02 µM
